Laboratory results published in patent US20230085307A1, “PYRIDAZINONE COMPOUND AND HERBICIDE” (NISSAN CHEMICAL CORPORATION, priority 2019, published 2023).

How the values were obtained:
southern crabgrass = experiment: Test Example 4: herbicidal effect by soil treatment (Table 19, symbol F); type: in vivo, southern crabgrass (Digitaria ciliaris); settings: amount of applied herbicide 320 g/ha
Method in brief: (§1)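 Applied as a water-diluted emulsion, the compound was sprayed onto soil covering newly sown seeds. Evaluation came three weeks after application, in a greenhouse held at 25° C. to 30° C.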

late watergrass = experiment: Test Example 2: herbicidal activity, application during weed generation under submerged conditions (Table 17, symbol A); type: in vivo, late watergrass (Echinochloa oryzicola); settings: AAH 320 g/ha; application during weed generation, submerged conditions
Method in brief: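 Steps: fill Wagner pots with alluvial soil; add water to give 4 cm depth; sow the species mixed; grow under glass at 25–30° C.; at 1–2 leaves apply water-diluted emulsion formulation to the water surface at a fixed herbicide amount; score after 3 weeks.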

windgrass = experiment: Test Example 4: herbicidal effect by soil treatment (Table 19, symbol L); type: in vivo, windgrass (Apera spica-venti); settings: amount of applied herbicide 320 g/ha
Method in brief: as §1

barnyard grass [1] = experiment: Test Example 3: herbicidal effect by foliage application, Wagner pot (Table 18, symbol H); type: in vivo, barnyard grass (Echinochloa crus-galli); settings: 320 g/ha
Method in brief: (§2)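 Plants were sown in alluvial soil held under 0.1–0.5 cm standing water and grown 14 days in a greenhouse at 25–30 °C. An emulsifiable formulation, water-diluted to the set dose, was then sprayed onto the foliage, and effects were scored three weeks later using previously defined criteria.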

oval-leafed pondweed = experiment: Test Example 1: herbicidal activity, application before weed generation under submerged conditions (Table 16, symbol C); type: in vivo, oval-leafed pondweed (Monochoria vaginalis); settings: amount of applied herbicide 320 g/ha
Method in brief: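 Submerged Wagner pots (alluvial soil, 4 cm water) sown with weed seeds and planted with 2.5-leaf rice seedlings; emulsifiable concentrate diluted in water applied to water surface on sowing day. Held in greenhouse at 25-30 °C; injury scored 0-5 by herbicidal rate after three weeks.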

Chinese sprangletop = experiment: Test Example 3: herbicidal effect by foliage application, Wagner pot (Table 18, symbol D); type: in vivo, chinese sprangletop (Leptochloa chinensis); settings: 320 g/ha
Method in brief: as §2

persian speedwell = experiment: Test Example 5: herbicidal effect by foliage application, plastic box (Table 20, symbol R); type: in vivo, Persian speedwell (Veronica persica); settings: 320 g/ha; for herbicidal effect on R: persian speedwell (evaluation grade 0-5): foliage application after 14-day growth, evaluated three weeks after application
Method in brief: (§3)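 Sow seeds spot-wise in sterilized diluvial soil; cover with ~1.5 cm soil. Grow 14 days in greenhouse, 25° C. to 30° C. Spray foliage with emulsion diluted to predetermined amount. Rate effect after 3 weeks.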

redroot pigweed = experiment: Test Example 5: herbicidal effect by foliage application, plastic box (Table 20, symbol N); type: in vivo, redroot pigweed (Amaranthus retroflexus); settings: 320 g/ha; for herbicidal effect on N: redroot pigweed (evaluation grade 0-5): foliage application after 14-day growth, evaluated three weeks after application
Method in brief: as §3

lambsquarters = experiment: Test Example 5: herbicidal effect by foliage application, plastic box (Table 20, symbol O); type: in vivo, lambsquarters (Chenopodium album); settings: 320 g/ha; for herbicidal effect on O: lambsquarters (evaluation grade 0-5): foliage application after 14-day growth, evaluated three weeks after application
Method in brief: as §3

rice flat sedge = experiment: Test Example 3: herbicidal effect by foliage application, Wagner pot (Table 18, symbol E); type: in vivo, rice flat sedge (Cyperus iria); settings: 320 g/ha
Method in brief: as §2

barnyard grass [2] = experiment: Test Example 4: herbicidal effect by soil treatment (Table 19, symbol H); type: in vivo, barnyard grass (Echinochloa crus-galli); settings: amount of applied herbicide 320 g/ha
Method in brief: as §1

chickweed = experiment: Test Example 4: herbicidal effect by soil treatment (Table 19, symbol P); type: in vivo, common chickweed (Stellaria media); settings: amount of applied herbicide 320 g/ha
Method in brief: as §1

[3] = foliage application, three weeks after application

Compound	Herbicidal effect by soil treatment, F: southern crabgrass (southern crabgrass)	herbicidal effect rating, A: late watergrass (late watergrass)	Herbicidal effect by soil treatment, L: windgrass (windgrass)	herbicidal effect on barnyard grass (H) (barnyard grass [1])	Herbicidal effect, C: oval-leafed pondweed (oval-leafed pondweed)	herbicidal effect on Chinese sprangletop (D) (Chinese sprangletop)	herbicidal effect on R: persian speedwell (evaluation grade 0-5) (persian speedwell)	herbicidal effect on N: redroot pigweed (evaluation grade 0-5) (redroot pigweed)	herbicidal effect on O: lambsquarters (evaluation grade 0-5) (lambsquarters)	herbicidal effect on rice flat sedge (E) (rice flat sedge)	Herbicidal effect by soil treatment, H: barnyard grass (barnyard grass [2])	Herbicidal effect by soil treatment, P: chickweed (chickweed)	F: southern crabgrass, herbicidal effect grade (southern crabgrass)	L: windgrass, herbicidal effect grade (windgrass)	R: persian speedwell, herbicidal effect grade (persian speedwell; [3])	N: redroot pigweed, herbicidal effect grade (redroot pigweed; [3])	O: lambsquarters, herbicidal effect grade (lambsquarters; [3])	H: barnyard grass, herbicidal effect grade (barnyard grass [2])	P: chickweed, herbicidal effect grade (chickweed)
CCCC(=O)Oc1c(C)nn(C)c(=O)c1-c1c(-c2ccccc2OCC)sc2c(Cl)cccc12 [4-026]	3 (Herbicidal rate of 40% or more and less than 70%)	3 (Herbicidal rate of 40% or more and less than 70%)	0 (Herbicidal rate of 5% or less (almost no effect))	5 (Herbicidal rate of 90% or more (almost completely withered))	4 (Herbicidal rate of 70% or more and less than 90%)	5 (Herbicidal rate of 90% or more (almost completely withered))	4 (Herbicidal rate of 70% or more and less than 90%)	5 (Herbicidal rate of 90% or more (almost completely withered))	3 (Herbicidal rate of 40% or more and less than 70%)	5 (Herbicidal rate of 90% or more (almost completely withered))	3 (Herbicidal rate of 40% or more and less than 70%)	1 (Herbicidal rate of 5% or more and less than 20%)	–	–	–	–	–	–	–
CCCC(=O)Oc1c(C)nn(C)c(=O)c1-c1c(-c2ccc(C(F)(F)F)cc2)sc2c(F)cccc12 [4-045]	0 (Herbicidal rate of 5% or less (almost no effect))	3 (Herbicidal rate of 40% or more and less than 70%)	3 (Herbicidal rate of 40% or more and less than 70%)	5 (Herbicidal rate of 90% or more (almost completely withered))	0 (Herbicidal rate of 5% or less (almost no effect))	3 (Herbicidal rate of 40% or more and less than 70%)	5 (Herbicidal rate of 90% or more (almost completely withered))	4 (Herbicidal rate of 70% or more and less than 90%)	3 (Herbicidal rate of 40% or more and less than 70%)	5 (Herbicidal rate of 90% or more (almost completely withered))	0 (Herbicidal rate of 5% or less (almost no effect))	3 (Herbicidal rate of 40% or more and less than 70%)	–	–	–	–	–	–	–
COc1ccccc1-c1sc2cc(OCC3CC3)ccc2c1-c1c(O)c(C)nn(C)c1=O [3-129]	–	3 (Herbicidal rate of 40% or more and less than 70%)	–	5 (Herbicidal rate of 90% or more (almost completely withered))	5 (Herbicidal rate of 90% or more (almost completely withered))	4 (Herbicidal rate of 70% or more and less than 90%)	–	–	–	5 (Herbicidal rate of 90% or more (almost completely withered))	–	–	4 (Herbicidal rate of 70% or more and less than 90%)	5 (Herbicidal rate of 90% or more (almost completely withered))	5 (Herbicidal rate of 90% or more (almost completely withered))	5 (Herbicidal rate of 90% or more (almost completely withered))	4 (Herbicidal rate of 70% or more and less than 90%)	4 (Herbicidal rate of 70% or more and less than 90%)	3 (Herbicidal rate of 40% or more and less than 70%)
